According to patent US20250326765A1, “PDE4B INHIBITOR AND USE THEREOF” (XIZANG HAISCO PHARMACEUTICAL CO., LTD., priority 2022, published 2025):

Experiments:
[1] = Pharmacokinetic test in beagle dogs; assay type: in vivo
Method: 6.1 Experimental animals: male beagle dogs, about 8-11 kg, 6 beagle dogs/compound, purchased from Beijing Marshall Biotechnology Co., Ltd.
6.2 Experimental method: On the day of the experiment, 18 beagle dogs were randomly grouped according to their body weights. The animals were fasted with water available for 12-14 h one day before administration and fed 4 h after administration. Administration was carried out according to Table 8.
Before and after administration, 1 ml of blood was taken from the jugular vein or limb vein and placed in an EDTAK2 centrifuge tube. Centrifugation was carried out at 5000 rpm at 4° C. for 10 min, and plasma was collected. The blood collection time points for the intravenous group and intragastric group were both 0 min, 5 min, 15 min, 30 min, 1 h, 2 h, 4 h, 6 h, 8 h, 10 h, 12 h, 24 h, 48 h, and 72 h. Before analysis and detection, all the samples were stored at −80° C., and the samples were subjected to quantitative analysis using LC-MS/MS.

[2] = Pharmacokinetic test in monkeys; assay type: in vivo, cynomolgus monkeys
Method: Experimental animals: Male cynomolgus monkeys, 3-5 kg, 3-6 years old, 6 monkeys/compound. Purchased from Suzhou Xishan Biotechnology Inc.
Experimental method: On the day of the experiment, 12 monkeys were randomly grouped according to their body weights. The animals were fasted with water available for 14-18 h one day before administration and fed 4 h after administration.
Before and after administration, 1.0 mL of blood sample was taken from the limb vein and placed in an EDTAK2 centrifuge tube. Centrifugation was carried out at 5000 rpm at 4° C. for 10 min, and plasma was collected. The blood collection time points for the intravenous group were 0 min, 5 min, 15 min, 30 min, 1 h, 2 h, 4 h, 6 h, 8 h, 10 h, 12 h, and 24 h. Before analysis and detection, all the samples were stored at −80° C., and the samples were subjected to quantitative analysis using LC-MS/MS.

PDE4D2 = biological target: T1, PDE4D2 (Homo sapiens, UniProt Q08499); assay: Effect of compounds on PDE4D2 activity (fluorescence polarization kit); assay type: biochemical; settings: class symbols
T1 construct: purchased BPS Bioscience 60345
Summary of the method: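 PDE4D2 (0.068 ng/well final) pre-incubated 15 min at room temperature with serially diluted compound, then […] FAM-cAMP (final) added for 30 min. Binding Agent added for 1 h before fluorescence polarization readout (Ex 485/Em 520 nm, mP). Inhibition derived against positive and negative control wells; IC50 from concentration-inhibition data.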

[3] = Pharmacokinetic test in mice; assay type: in vivo, ICR mice
Method: 5.1 Experimental animals: Male ICR mice, 20-25 g, 6 mice/compound. Purchased from Chengdu Ddossy Experimental Animals Co., Ltd.
5.2 Experimental design: On the day of the experiment, 42 ICR mice were randomly grouped according to their body weights. The animals were fasted with water available for 12-14 h one day before administration and fed 4 h after administration.
Before and after administration, 0.06 mL of blood was taken from the orbit under isoflurane anesthesia and placed in an EDTAK2 centrifuge tube for centrifugation at 5000 rpm at 4-C for 10 min, followed by plasma collection. The blood collection time points for the intravenous group and intragastric group were both 0 m, 5 mi, 15 mi, 30 mi, 1 h, 2 h, 4 h, 6 h, 8 h, and 24 h. Before analysis and detection, all the samples were stored at −80° C., and the samples were subjected to quantitative analysis using LC-MS/MS.

[4] = male, dog, iv, plasma, i.v. (1 mg/kg)
[5] = male, dog, po, plasma, i.g. (5 mg/kg)
[6] = male, cynomolgus monkey, iv, plasma, i.v. (1 mg/kg)
[7] = male, ICR, mouse, iv, plasma, i.v. (5 mg/kg)
[8] = male, ICR, mouse, po, plasma, i.g. (10 mg/kg)

T1 sequence (Q08499 303-809): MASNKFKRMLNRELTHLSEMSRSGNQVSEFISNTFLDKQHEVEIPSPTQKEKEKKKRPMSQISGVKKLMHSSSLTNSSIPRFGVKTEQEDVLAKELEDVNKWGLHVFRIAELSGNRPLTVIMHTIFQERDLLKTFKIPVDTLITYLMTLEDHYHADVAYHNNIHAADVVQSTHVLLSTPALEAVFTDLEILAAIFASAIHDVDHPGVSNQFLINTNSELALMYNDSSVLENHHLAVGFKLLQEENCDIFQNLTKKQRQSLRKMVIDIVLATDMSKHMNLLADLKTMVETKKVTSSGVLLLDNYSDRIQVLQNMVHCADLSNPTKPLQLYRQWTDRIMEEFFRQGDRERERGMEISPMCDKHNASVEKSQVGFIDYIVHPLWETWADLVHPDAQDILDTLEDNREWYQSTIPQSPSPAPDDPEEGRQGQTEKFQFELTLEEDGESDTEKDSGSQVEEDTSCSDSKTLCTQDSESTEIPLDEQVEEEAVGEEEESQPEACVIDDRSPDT

Structure (SMILES)	F ([1]; i.g. (5 mg/kg))	AUC(0-t) [1, 4]	clearance [1, 4]	half-life [1, 4]	Vd ([1]; male, dog, iv, plasma, i.v. (1 mg/kg), read-out: Vdss)	AUC(0-t) [1, 5]	half-life [1, 5]	F ([2]; i.g. (3 mg/kg))	AUC(0-t) [2, 6]	clearance [2, 6]	Vd ([2]; male, cynomolgus monkey, iv, plasma, i.v. (1 mg/kg), read-out: Vdss)	AUC(0-t) ([2]; male, cynomolgus monkey, po, plasma, i.g. (3 mg/kg))	IC50 (PDE4D2)	F ([3]; i.g. (10 mg/kg))	AUC(0-t) [3, 7]	clearance [3, 7]	half-life [3, 7]	Vd ([3]; male, ICR, mouse, iv, plasma, i.v. (5 mg/kg), read-out: Vdss)	AUC(0-t) [3, 8]	half-life [3, 8]
[O-][S@+]1CCc2nc(N3C[C@H]4CN(c5ccc6c(c5)CC6)C[C@H]4C3)nc(NC3(CO)CCC3)c21 [Compound 31]	≥98%	7070 ± 3250 ng·h/mL	2.69 ± 1.7 mL/min/kg	5.85 ± 0.63 h	0.957 ± 0.37 L/kg	26100 ± 11900 ng·h/mL	7.38 ± 1.2 h	30.9 ± 13%	8550 ± 664 ng·h/mL	1.95 ± 0.15 mL/min/kg	0.888 ± 0.16 L/kg	7930 ± 3240 ng·h/mL	< 10 nM							
C#Cc1cnc(C2=CCN(c3nc4c(c(NC5(CO)CCC5)n3)[S+]([O-])CC4)CC2)nc1 (stereo not drawn) [Compound 37]													< 10 nM	≥98%	6000 ± 1090 ng·h/mL	7.03 ± 1.1 mL/min/kg	3.34 ± 0.3 h	1.3 ± 0.086 L/kg	26900 ± 3910 ng·h/mL	4.3 ± 0.69 h
